The nature of the series: molar enthalpy of vaporization or sublimation. Conditions: 298.15 K, Calvet microcalorimetry.

Consider three compounds from the NIST ThermoML archive (doi:10.1021/je9000872).

± gives the expanded uncertainty stated by the source.

As for `Oc1ccccc1F` [2-fluorophenol], the molar enthalpy (Liquid) was found to be 12.5 ± 0.382 kcal/mol.

As to `Oc1cccc(F)c1` [3-fluorophenol], the molar enthalpy (Liquid) was 14.4 ± 0.43 kcal/mol.

`Oc1ccc(F)cc1` [4-fluorophenol]: the molar enthalpy (Crystal) was determined as 17.7 ± 0.669 kcal/mol.
